{
  "source": "the supplement of paper PMC10307832",
  "test_in_all_cases": "relative viability (nuclei count vs DMSO), 5 days (fraction); higher = more cells survive",
  "key": {"ABC-1": {"system": "ABC-1", "method_in_brief": "(§1)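 Lung cancer cell lines were seeded in 1536-well plates and dosed by pin tool the next day, with either a single drug or a fixed anchor-drug dose combined with five library-drug doses (not always all listed) spaced in √10 steps. Five days later, one step fixed the cells and stained their nuclei (final 0.05% Triton X-100, 1% formaldehyde, 1 ug/ml Hoechst), and nuclei were counted on 4× images. Relative viability is the nuclei count in treated wells divided by the count in vehicle wells, and each value is the median of duplicate plates.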"}, "COR-L23": {"system": "COR-L23", "method_in_brief": "as §1"}, "EPLC-272H": {"system": "EPLC-272H", "method_in_brief": "as §1"}, "HARA": {"system": "HARA", "method_in_brief": "as §1"}, "HCC-15": {"system": "HCC-15", "method_in_brief": "as §1"}, "HCC-78": {"system": "HCC-78", "method_in_brief": "as §1"}, "LC-2-ad": {"system": "LC-2-ad", "method_in_brief": "as §1"}, "LU99A": {"system": "LU99A", "method_in_brief": "as §1"}, "NCI-H1651": {"system": "NCI-H1651", "method_in_brief": "as §1"}, "NCI-H1915": {"system": "NCI-H1915", "method_in_brief": "as §1"}, "NCI-H1993": {"system": "NCI-H1993", "method_in_brief": "as §1"}, "NCI-H2009": {"system": "NCI-H2009", "method_in_brief": "as §1"}, "NCI-H2085": {"system": "NCI-H2085", "method_in_brief": "as §1"}, "NCI-H2126": {"system": "NCI-H2126", "method_in_brief": "as §1"}, "NCI-H2342": {"system": "NCI-H2342", "method_in_brief": "as §1"}, "NCI-H2347": {"system": "NCI-H2347", "method_in_brief": "as §1"}, "NCI-H358": {"system": "NCI-H358", "method_in_brief": "as §1"}, "NCI-H460": {"system": "NCI-H460", "method_in_brief": "as §1"}, "NCI-H522": {"system": "NCI-H522", "method_in_brief": "as §1"}, "NCI-H650": {"system": "NCI-H650", "method_in_brief": "as §1"}, "NCI-H838": {"system": "NCI-H838", "method_in_brief": "as §1"}, "PC-14": {"system": "PC-14", "method_in_brief": "as §1"}, "SW 1573": {"system": "SW 1573", "method_in_brief": "as §1"}, "UMC-11": {"system": "UMC-11", "method_in_brief": "as §1"}},
  "data": [
    {"smiles": "CC(C)Oc1cc(Nc2nc(N[C@@H](C)c3ccc(F)cn3)ncc2Cl)n[nH]1", "note": "[AZ23] + Cc1nc(Nc2ncc(C(=O)Nc3c(C)cccc3Cl)s2)cc(N2CCN(CCO)CC2)n1 [Dasatinib] (partner 0.075 µM)", "values": [
      {"measurement": "relative viability", "setting": "ABC-1; first compound 0.01 µM", "result": 0.583},
      {"measurement": "relative viability", "setting": "ABC-1; first compound 0.03162 µM", "result": 0.766},
      {"measurement": "relative viability", "setting": "ABC-1; first compound 0.3162 µM", "result": 0.546},
      {"measurement": "relative viability", "setting": "COR-L23; first compound 0.01 µM", "result": 0.485},
      {"measurement": "relative viability", "setting": "COR-L23; first compound 0.03162 µM", "result": 0.645},
      {"measurement": "relative viability", "setting": "COR-L23; first compound 0.3162 µM", "result": 0.504},
      {"measurement": "relative viability", "setting": "EPLC-272H; first compound 0.01 µM", "result": 0.38},
      {"measurement": "relative viability", "setting": "EPLC-272H; first compound 0.03162 µM", "result": 0.305},
      {"measurement": "relative viability", "setting": "EPLC-272H; first compound 0.3162 µM", "result": 0.273},
      {"measurement": "relative viability", "setting": "HARA; first compound 0.03162 µM", "result": 0.37},
      {"measurement": "relative viability", "setting": "HARA; first compound 0.3162 µM", "result": 0.217},
      {"measurement": "relative viability", "setting": "HCC-15; first compound 0.01 µM", "result": 0.642},
      {"measurement": "relative viability", "setting": "HCC-15; first compound 0.03162 µM", "result": 0.712},
      {"measurement": "relative viability", "setting": "HCC-15; first compound 0.3162 µM", "result": 0.575},
      {"measurement": "relative viability", "setting": "HCC-78; first compound 0.01 µM", "result": 0.323},
      {"measurement": "relative viability", "setting": "HCC-78; first compound 0.03162 µM", "result": 0.381},
      {"measurement": "relative viability", "setting": "HCC-78; first compound 0.3162 µM", "result": 0.328},
      {"measurement": "relative viability", "setting": "LC-2-ad; first compound 0.01 µM", "result": 0.569},
      {"measurement": "relative viability", "setting": "LC-2-ad; first compound 0.03162 µM", "result": 0.588},
      {"measurement": "relative viability", "setting": "LC-2-ad; first compound 0.3162 µM", "result": 0.564},
      {"measurement": "relative viability", "setting": "LU99A; first compound 0.01 µM", "result": 0.623},
      {"measurement": "relative viability", "setting": "LU99A; first compound 0.03162 µM", "result": 0.646},
      {"measurement": "relative viability", "setting": "LU99A; first compound 0.3162 µM", "result": 0.369},
      {"measurement": "relative viability", "setting": "NCI-H1651; first compound 0.03162 µM", "result": 0.471},
      {"measurement": "relative viability", "setting": "NCI-H1651; first compound 0.3162 µM", "result": 0.386},
      {"measurement": "relative viability", "setting": "NCI-H1915; first compound 0.01 µM", "result": 0.33},
      {"measurement": "relative viability", "setting": "NCI-H1915; first compound 0.03162 µM", "result": 0.342},
      {"measurement": "relative viability", "setting": "NCI-H1915; first compound 0.3162 µM", "result": 0.29},
      {"measurement": "relative viability", "setting": "NCI-H1993; first compound 0.01 µM", "result": 0.501},
      {"measurement": "relative viability", "setting": "NCI-H1993; first compound 0.03162 µM", "result": 0.613},
      {"measurement": "relative viability", "setting": "NCI-H1993; first compound 0.3162 µM", "result": 0.522},
      {"measurement": "relative viability", "setting": "NCI-H2009; first compound 0.01 µM", "result": 0.278},
      {"measurement": "relative viability", "setting": "NCI-H2009; first compound 0.03162 µM", "result": 0.341},
      {"measurement": "relative viability", "setting": "NCI-H2009; first compound 0.3162 µM", "result": 0.279},
      {"measurement": "relative viability", "setting": "NCI-H2085; first compound 0.01 µM", "result": 0.232},
      {"measurement": "relative viability", "setting": "NCI-H2085; first compound 0.03162 µM", "result": 0.214},
      {"measurement": "relative viability", "setting": "NCI-H2085; first compound 0.3162 µM", "result": 0.199},
      {"measurement": "relative viability", "setting": "NCI-H2126; first compound 0.01 µM", "result": 0.573},
      {"measurement": "relative viability", "setting": "NCI-H2126; first compound 0.03162 µM", "result": 0.715},
      {"measurement": "relative viability", "setting": "NCI-H2126; first compound 0.3162 µM", "result": 0.56},
      {"measurement": "relative viability", "setting": "NCI-H2342; first compound 0.01 µM", "result": 0.299},
      {"measurement": "relative viability", "setting": "NCI-H2342; first compound 0.03162 µM", "result": 0.31},
      {"measurement": "relative viability", "setting": "NCI-H2342; first compound 0.3162 µM", "result": 0.339},
      {"measurement": "relative viability", "setting": "NCI-H2347; first compound 0.01 µM", "result": 0.235},
      {"measurement": "relative viability", "setting": "NCI-H2347; first compound 0.03162 µM", "result": 0.298},
      {"measurement": "relative viability", "setting": "NCI-H2347; first compound 0.3162 µM", "result": 0.274},
      {"measurement": "relative viability", "setting": "NCI-H358; first compound 0.01 µM", "result": 0.144},
      {"measurement": "relative viability", "setting": "NCI-H358; first compound 0.03162 µM", "result": 0.161},
      {"measurement": "relative viability", "setting": "NCI-H358; first compound 0.3162 µM", "result": 0.123},
      {"measurement": "relative viability", "setting": "NCI-H460; first compound 0.01 µM", "result": 0.295},
      {"measurement": "relative viability", "setting": "NCI-H460; first compound 0.03162 µM", "result": 0.592},
      {"measurement": "relative viability", "setting": "NCI-H460; first compound 0.3162 µM", "result": 0.503},
      {"measurement": "relative viability", "setting": "NCI-H522; first compound 0.01 µM", "result": 0.716},
      {"measurement": "relative viability", "setting": "NCI-H522; first compound 0.03162 µM", "result": 0.933},
      {"measurement": "relative viability", "setting": "NCI-H522; first compound 0.3162 µM", "result": 1.02},
      {"measurement": "relative viability", "setting": "NCI-H650; first compound 0.01 µM", "result": 0.441},
      {"measurement": "relative viability", "setting": "NCI-H650; first compound 0.03162 µM", "result": 0.46},
      {"measurement": "relative viability", "setting": "NCI-H650; first compound 0.3162 µM", "result": 0.48},
      {"measurement": "relative viability", "setting": "NCI-H838; first compound 0.01 µM", "result": 0.255},
      {"measurement": "relative viability", "setting": "NCI-H838; first compound 0.03162 µM", "result": 0.317},
      {"measurement": "relative viability", "setting": "NCI-H838; first compound 0.3162 µM", "result": 0.293},
      {"measurement": "relative viability", "setting": "PC-14; first compound 0.03162 µM", "result": 0.273},
      {"measurement": "relative viability", "setting": "PC-14; first compound 0.3162 µM", "result": 0.246},
      {"measurement": "relative viability", "setting": "SW 1573; first compound 0.01 µM", "result": 0.747},
      {"measurement": "relative viability", "setting": "SW 1573; first compound 0.03162 µM", "result": 0.605},
      {"measurement": "relative viability", "setting": "SW 1573; first compound 0.3162 µM", "result": 0.52},
      {"measurement": "relative viability", "setting": "UMC-11; first compound 0.01 µM", "result": 0.593},
      {"measurement": "relative viability", "setting": "UMC-11; first compound 0.03162 µM", "result": 0.504},
      {"measurement": "relative viability", "setting": "UMC-11; first compound 0.3162 µM", "result": 0.481}
    ]}
  ]
}
